Measured values taken from patent publication US20240109853A1 (Shanghai Yao Yuan Biotechnology Co., Ltd., priority 2020, published 2024).
Like-named read-outs stand apart in the source and are kept apart here.

Tests used:
[1] = molecular target: ALPK1 (Homo sapiens (Human), UniProt Q96QP1); assay: ALPK1 in vitro kinase assay (HTRF of TIFA phosphorylation); format: biochemical
[2] = tested on: ALPK1-dependent NFκB reporter gene activation in HEK293 cells stably expressing an NF-kB reporter (G9 cells); assay: NFκB gene reporter alkaline phosphatase assay; format: cell-based; conditions: read-out: NFkB assay IC50
Summary of the method: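 HEK293 G9 cells carrying an NF-κB-driven alkaline phosphatase reporter, pretreated 30 min with serially diluted compound, then stimulated with D-glycero-D-manno-6-fluoro-heptose-1β-S-ADP. Reporter activity read with chromogenic pNPP substrate; IC50 from four-parameter logistic fit.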

Sequence of ALPK1 (Q96QP1 whole entry): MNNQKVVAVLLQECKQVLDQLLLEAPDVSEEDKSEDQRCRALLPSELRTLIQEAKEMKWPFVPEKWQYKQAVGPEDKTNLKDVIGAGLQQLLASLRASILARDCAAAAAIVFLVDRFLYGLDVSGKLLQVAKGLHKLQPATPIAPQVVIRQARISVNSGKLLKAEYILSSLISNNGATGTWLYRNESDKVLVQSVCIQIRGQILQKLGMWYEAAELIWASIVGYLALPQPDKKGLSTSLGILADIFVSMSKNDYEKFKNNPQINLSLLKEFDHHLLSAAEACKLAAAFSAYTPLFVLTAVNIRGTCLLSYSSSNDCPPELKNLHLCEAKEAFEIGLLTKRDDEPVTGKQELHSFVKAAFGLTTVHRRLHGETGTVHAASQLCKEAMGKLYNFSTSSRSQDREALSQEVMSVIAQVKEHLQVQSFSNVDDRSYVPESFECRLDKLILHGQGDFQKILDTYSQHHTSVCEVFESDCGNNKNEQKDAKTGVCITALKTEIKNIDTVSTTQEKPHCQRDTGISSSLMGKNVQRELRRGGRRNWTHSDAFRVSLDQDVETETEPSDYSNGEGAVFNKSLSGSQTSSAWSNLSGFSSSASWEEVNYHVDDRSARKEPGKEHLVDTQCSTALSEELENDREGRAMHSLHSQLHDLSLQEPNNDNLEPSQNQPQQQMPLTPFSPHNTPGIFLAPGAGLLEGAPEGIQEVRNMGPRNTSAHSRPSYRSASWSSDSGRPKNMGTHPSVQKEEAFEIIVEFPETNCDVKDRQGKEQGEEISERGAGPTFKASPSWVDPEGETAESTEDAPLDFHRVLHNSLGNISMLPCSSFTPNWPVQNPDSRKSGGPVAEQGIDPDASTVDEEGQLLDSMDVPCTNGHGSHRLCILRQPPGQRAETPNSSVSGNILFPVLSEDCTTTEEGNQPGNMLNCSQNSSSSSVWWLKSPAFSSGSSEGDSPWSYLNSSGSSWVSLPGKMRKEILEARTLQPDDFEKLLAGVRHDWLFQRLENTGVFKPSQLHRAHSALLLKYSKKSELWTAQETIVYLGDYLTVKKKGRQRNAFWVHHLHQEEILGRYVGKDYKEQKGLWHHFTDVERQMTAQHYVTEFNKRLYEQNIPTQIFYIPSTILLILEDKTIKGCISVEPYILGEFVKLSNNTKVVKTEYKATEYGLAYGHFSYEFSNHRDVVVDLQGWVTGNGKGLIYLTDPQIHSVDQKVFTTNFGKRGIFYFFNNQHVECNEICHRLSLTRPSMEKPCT

Question: With `C#C[C@@](C)(c1ccc(OC)cc1)c1csc(NC(=O)NCCO)n1` [Example A170, (S)-1-(2-hydroxyethyl)-3-(4-(2-(4-methoxyphenyl)but-3-yn-2-yl)thiazol-2-yl)urea] as the compound, how does the IC50 [1] read?
Answer: 8 nM

Question: What about the IC50 ([2]; Homo sapiens, HEK293) of the same compound?
Answer: 460 nM

Question: `C#CC(C)(c1ccc(OC)cc1)c1csc(NC(N)=O)n1` (stereo not shown) [Example A171, 1-(4-(2-(4-methoxyphenyl)but-3-yn-2-yl)thiazol-2-yl)urea] was tested. Which IC50 [1] did it give?
Answer: 16 nM

Question: What about the IC50 ([2]; Homo sapiens, HEK293) of the same compound?
Answer: 730 nM

Question: Which results are given for `C#C[C@](C)(c1ccc(OC)cc1)c1csc(NC(N)=O)n1` [Example A172, (R)-1-(4-(2-(4-methoxyphenyl)but-3-yn-2-yl)thiazol-2-yl)urea]?
Answer: IC50 [1]: 36 nM; IC50 ([2]; Homo sapiens, HEK293): 1280 nM

Question: Which results are given for `C#C[C@@](C)(c1ccc(OC)cc1)c1csc(NC(N)=O)n1` [Example A173, (S)-1-(4-(2-(4-methoxyphenyl)but-3-yn-2-yl)thiazol-2-yl)urea]?
Answer: IC50 [1]: 8 nM; IC50 ([2]; Homo sapiens, HEK293): 580 nM

Question: What does the source list for `C#CC(C)(c1ccc(Cl)cc1)c1csc(NC(=O)NCCO)n1` (stereo not shown) [Example A174, 1-(4-(2-(4-chlorophenyl)but-3-yn-2-yl)thiazol-2-yl)-3-(2-hydroxyethyl)urea]?
Answer: IC50 [1]: 34 nM; IC50 ([2]; Homo sapiens, HEK293): 310 nM

Question: Which results are given for `CC(C)(c1ccc(Br)cc1)c1csc(NC(=O)NCCN2CCNCC2)n1` [Example A177, 1-(4-(2-(4-bromophenyl)propan-2-yl)thiazol-2-yl)-3-(2-(piperazin-1-yl)ethyl)urea]?
Answer: IC50 [1]: 249 nM; IC50 ([2]; Homo sapiens, HEK293): 1660 nM

Question: With `CC(C)(c1ccc(Cl)c(F)c1)c1csc(NC(=O)NCc2cnc(N3CCNCC3)nc2)n1` [Example A179, 1-(4-(2-(4-chloro-3-fluorophenyl)propan-2-yl)thiazol-2-yl)-3-((2-(piperazin-1-yl)pyrimidin-5-yl)methyl)urea] as the compound, how does the IC50 [1] read?
Answer: 95 nM

Question: And the IC50 ([2]; Homo sapiens, HEK293)?
Answer: 1360 nM

Question: Which results are given for `CC(C)(c1ccc(Br)cc1)c1csc(NC(=O)NCc2ccnc(N3CCNCC3)c2)n1` [Example A181, 1-(4-(2-(4-bromophenyl)propan-2-yl)thiazol-2-yl)-3-((2-(piperazin-1-yl)pyridin-4-yl)methyl)urea]?
Answer: IC50 [1]: 131 nM; IC50 ([2]; Homo sapiens, HEK293): 1520 nM

Question: For `CC(C)(c1ccc(Br)cc1)c1csc(NC(=O)NCc2cccc(N3CCNCC3)n2)n1` [Example A182, 1-(4-(2-(4-bromophenyl)propan-2-yl)thiazol-2-yl)-3-((6-(piperazin-1-yl)pyridin-2-yl)methyl)urea], which IC50 [1] is on record?
Answer: 163 nM

Question: What about the IC50 ([2]; Homo sapiens, HEK293) of the same compound?
Answer: 4300 nM

Question: `COc1ccc(C(C)(C)c2csc(NC(=O)NCc3ccc(NCCN)cc3)n2)cc1` [Example A183, 1-(4-((2-aminoethyl)amino)ben-yzl)-3-(4-(2-(4-methoxyphenyl)propan-2-yl)thiazol-2-yl)urea] was tested. Which IC50 [1] did it give?
Answer: 52 nM

Question: And the IC50 ([2]; Homo sapiens, HEK293)?
Answer: 2310 nM

Question: What does the source list for `COc1ccc(C(C)(C)c2csc(NC(=O)NCc3ccc(N4CCC(N)C4)nc3)n2)cc1` (stereo not shown) [Example A186, 1-((6-(3-aminopyrrolidin-1-yl)pyridin-3-yl)methyl)-3-(4-(2-(4-methoxyphenyl)propan-2-yl)thiazol-2-yl)urea]?
Answer: IC50 [1]: 19 nM; IC50 [2]: 1550 nM

Question: Which results are given for `COc1ccc(C(C)(C)c2csc(NC(=O)NCc3cnc(N4CCC(N)C4)nc3)n2)cc1` (stereo not shown) [Example A187, 1-((2-(3-aminopyrrolidin-1-yl)pyrimidin-5-yl)methyl)-3-(4-(2-(4-methoxyphenyl)propan-2-yl)thiazol-2-yl)urea]?
Answer: IC50 [1]: 7 nM; IC50 ([2]; Homo sapiens, HEK293): 700 nM

Question: `CC(C)(c1ccc(Br)cc1)c1csc(NC(=O)NCc2ccc(N3CCC(N)C3)nc2)n1` (stereo not shown) [Example A189, 1-((6-(3-aminopyrrolidin-1-yl)pyridin-3-yl)methyl)-3-(4-(2-(4-bromophenyl)propan-2-yl)thiazol-2-yl)urea] was tested. Which IC50 [1] did it give?
Answer: 41 nM

Question: What about the IC50 ([2]; Homo sapiens, HEK293) of the same compound?
Answer: 2310 nM

Question: With `COc1ccc(C(C)(C)c2csc(NC(=O)NCC3CC(N)C3)n2)cc1` (stereo not shown) [Example A190, 1-((3-aminocyclobutyl)methyl)-3-(4-(2-(4-methoxyphenyl)propan-2-yl)thiazol-2-yl)urea] as the compound, how does the IC50 [1] read?
Answer: 458 nM

Question: What about the IC50 ([2]; Homo sapiens, HEK293) of the same compound?
Answer: 3020 nM
